Reference: patent publication US12708659B2, “Polyphenolic insulin” (KIMBALL WESTWARD LLC, priority 2020, dated 2026)

What was measured:
insulin = insulin (Homo sapiens, UniProt P01308); conditions: does not require zinc ions; read-out: dissociation constant Kd of dimerization; cited from earlier work
[1] = Preservation of quercetin-containing insulin hexameric complexes by small phenolic compounds; type: physicochemical; conditions: as small phenolic compound

Sequence of insulin (P01308 25-54 limits assumed): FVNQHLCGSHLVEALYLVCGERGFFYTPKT
Sequence of insulin (P01308 90-110 limits assumed): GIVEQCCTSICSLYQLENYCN

Molecule: insulin: anabolic hormone of A-chain and B-chain linked by disulfide bonds
- Kd (insulin): ~10 µM

Molecule: O=C(O)c1ccc(O)cc1 [4-hydroxybenzoic acid]
- preservation of insulin hexameric complexes that contained quercetin [1]: better preserve insulin hexameric complexes

Molecule: O=C([O-])c1ccccc1.[Na+] [sodium benzoate]
- preservation of insulin hexameric complexes that contained quercetin [1]: better preserve insulin hexameric complexes
